For one test, the target named is human Fpn (Homo sapiens, UniProt Q9NP59). Put plainly: biochemical.
human Fpn, sequence (Q9NP59 whole entry): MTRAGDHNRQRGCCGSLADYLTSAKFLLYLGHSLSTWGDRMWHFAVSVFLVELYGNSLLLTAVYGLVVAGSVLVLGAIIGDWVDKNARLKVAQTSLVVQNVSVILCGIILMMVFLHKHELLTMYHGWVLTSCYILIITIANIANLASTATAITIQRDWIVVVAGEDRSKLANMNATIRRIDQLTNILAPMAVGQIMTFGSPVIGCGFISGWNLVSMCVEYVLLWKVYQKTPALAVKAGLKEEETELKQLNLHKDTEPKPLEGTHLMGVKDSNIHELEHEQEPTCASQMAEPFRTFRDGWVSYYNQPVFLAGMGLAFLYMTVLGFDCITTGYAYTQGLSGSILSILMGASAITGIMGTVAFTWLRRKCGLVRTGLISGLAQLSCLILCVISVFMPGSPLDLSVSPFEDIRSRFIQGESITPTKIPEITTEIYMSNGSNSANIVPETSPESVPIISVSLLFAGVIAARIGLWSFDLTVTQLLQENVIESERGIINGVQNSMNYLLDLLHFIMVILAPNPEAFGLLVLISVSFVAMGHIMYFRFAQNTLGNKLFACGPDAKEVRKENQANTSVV
Conditions: not given
On the procedure: This biophysical assay was developed to confirm inhibition of hepcidin binding to ferroportin (Fpn) more directly. Incubation of TMR-hepcidin with purified human Fpn isolated from Pichia pastoris yeast cells expressing human Fpn with a C-terminal FLAG affinity tag (Bonaccorsi di Patti, 2014) leads to increased fluorescence polarization (FP) of the TMR-hepcidin ligand.
human Fpn-GFP fusion protein, sequence (Q9NP59 whole entry, the tested form may be a part): as the sequence (Q9NP59 whole entry) above
For the compound `CC[C@H](C)[C@@H]1NC(=O)[C@@H](NC(=O)[C@@H](NC(=O)[C@@H]2CCCN2C(=O)[C@H](Cc2ccccc2)NC(=O)[C@H](Cc2c[nH]cn2)NC(=O)[C@@H](NC(=O)[C@@H](N)CC(=O)O)[C@@H](C)O)[C@@H](C)CC)CSSC[C@@H](C(=O)N[C@@H](CCCCN)C(=O)N[C@H](C(=O)O)[C@@H](C)O)NC(=O)[C@@H]2CSSC[C@@H]3NC(=O)[C@@H]4CSSC[C@H](NC(=O)[C@H](Cc5ccccc5)NC1=O)C(=O)N[C@@H](CSSC[C@H](NC(=O)[C@H](CCCCN)NC(=O)[C@H](CO)NC(=O)[C@H](CCCNC(=N)N)NC(=O)[C@H](Cc1c[nH]cn1)NC3=O)C(=O)NCC(=O)N[C@@H](CCSC)C(=O)N2)C(=O)NCC(=O)N4` [hepcidin], the IC50 is around 370 nM.

A further test has as its target T1, ferroportin (Fpn) (Mus musculus, UniProt Q9JHI9).
T1 construct: endogenous in cells; host or cells: J774 mouse macrophage cell line, induced with Fe(III)NTA
T1 sequence (Q9JHI9 1-570): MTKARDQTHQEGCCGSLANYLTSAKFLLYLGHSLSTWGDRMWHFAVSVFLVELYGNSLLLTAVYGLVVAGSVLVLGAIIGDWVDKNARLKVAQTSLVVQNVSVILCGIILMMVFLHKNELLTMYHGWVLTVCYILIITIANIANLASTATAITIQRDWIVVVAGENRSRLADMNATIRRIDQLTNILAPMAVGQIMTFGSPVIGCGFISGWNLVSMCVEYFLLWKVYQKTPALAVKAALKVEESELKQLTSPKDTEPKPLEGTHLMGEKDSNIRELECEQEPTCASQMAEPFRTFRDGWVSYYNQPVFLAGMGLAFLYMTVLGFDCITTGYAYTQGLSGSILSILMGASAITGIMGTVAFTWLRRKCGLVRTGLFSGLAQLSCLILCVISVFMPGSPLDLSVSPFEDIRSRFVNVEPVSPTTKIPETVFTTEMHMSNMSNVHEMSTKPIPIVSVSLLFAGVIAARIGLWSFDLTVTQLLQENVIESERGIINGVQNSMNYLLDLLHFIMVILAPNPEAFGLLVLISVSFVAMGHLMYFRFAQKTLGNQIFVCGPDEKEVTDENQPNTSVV
Put plainly: Hepcidin Internalization Assay (J774). In kind it is cell-based. The settings on record: J774 cells, TMR-hepcidin 25 nM, 2 hours; read-out: IC 50, average (AVE) of multiple measurements, hepcidin internalization assay. The text has this:
This cellular assay allows quantification of the binding of hepcidin to ferroportin (Fpn) through microscopic detection of internalization of a fluorescently labeled hepcidin into J774 cells. […] Binding of hepcidin to Fpn triggers internalization and degradation of both hepcidin and Fpn. […] Therefore, microscopic detection of cell-associated TMR fluorescence is a measure of hepcidin binding to Fpn and internalization of hepcidin and Fpn. If TMR-hepcidin is prevented from binding to Fpn, cellular TMR fluorescence remains low (Dürrenberger et al, 2013). The effect of small molecular weight Fpn inhibitor compounds in this assay was evaluated in vitro as described below. […] Cat. 655090) and grown at 37° C. with 5% CO2. After overnight incubation, cells were washed 3 times with pre-warmed DMEM w/o phenol red, 30 μl/well of DMEM w/o phenol red was added after the final wash and 10 μl/well of dilution series of test compounds were added in triplicates. […] Cells were incubated in a total volume of 50 μl at 37° C. with 5% CO2 for 2 hours, then Hoechst 33342 dye was added to a final concentration of 0.5 μg/ml to stain nuclei and further incubated for 10 min. at 37° C. with 5% CO2. […] After removal of the paraformaldehyde solution, cells were washed 3 times with PBS leaving 100 μl per well and the plates were sealed with foil plate seal. […] The acquired image data was analysed with the […] analysis software. […] IC50 values were calculated with the Sum(Mean) raw data using “log(inhibitor) vs. response” curve fitting of Prism 5 software (GraphPad Software Inc., version 5.02). For each data set the fit of the “log(inhibitor) vs. response (three parameters)” model was compared to the fit of the “log(inhibitor) vs. response-Variable slope (four parameters)” model and the IC50 data of the preferred model was used.
Regarding `O=C(NCc1ccccn1)c1coc(CCNCCc2nc3cc(-c4ccc(F)cc4)ccc3[nH]2)n1` [compound 66], the IC50 was 68 nM.

On to `Cc1ccccc1-c1ccc2[nH]c(CCNCCc3nc(C(=O)NCc4ncccc4F)co3)nc2c1` [compound 62], for which the IC50 came to 8 nM.

Take `O=C(NCc1ccc2c(ccc3ccccc32)n1)c1coc(CCNCCc2nc3ccccc3[nH]2)n1` [compound 6, 2-(2-((2-(1H-benzo[d]imidazol-2-yl)ethyl)amino)ethyl)-N-(benzo[f]quinolin-3-ylmethyl)oxazole-4-carboxamide]: the IC50 was found to be 1600 nM.

`O=C(NCc1ncccc1F)c1coc(CCNCCc2nc3cc4c(cc3[nH]2)OCO4)n1` [compound 36]: the IC50 was found to be 11 nM.

As for `O=C(NCc1nc2ccccc2c2ccccc12)c1coc(CCNCCc2nc3ccccc3[nH]2)n1` [compound 7], the IC50 was found to be 1590 nM.

With `O=C(NCc1ncccc1F)c1coc(CCNCCc2nc3cc(-c4cccc(Cl)c4)ccc3[nH]2)n1` [compound 85], the IC50 is 11 nM.

In the case of `CN(C)C(=O)c1cccc(C#Cc2ccc3[nH]c(CCNCCc4nc(C(=O)NCc5ncccc5F)co4)nc3c2)c1` [compound 76], the IC50 came to 3 nM.

Regarding `Cc1cccc(-c2ccc3[nH]c(CCNCCc4nc(C(=O)NCc5ncccc5F)co4)nc3c2)c1` [compound 65], the IC50 was 15 nM.

Regarding `O=C(NCc1ncccc1F)c1coc(CCNCCc2nc3cc(C#Cc4ccccc4)ccc3[nH]2)n1` [compound 72], the IC50 turned out to be 2 nM.

Consider `O=C(NCc1ncccc1F)c1coc(CCNCc2nc3cc4ccccc4cc3[nH]2)n1` [compound 1, 2-(2-(((1H-naphtho[2,3-d]imidazol-2-yl)methyl)amino)ethyl)-N-((3-fluoropyridin-2-yl)methyl)oxazole-4-carboxamide], for which the IC50 came to 40 nM.

Turning to `COc1cccc(-c2ccc3[nH]c(CCNCCc4nc(C(=O)NCc5ccccn5)co4)nc3c2)c1` [compound 70], the IC50 turned out to be 26 nM.

Turning to `CCc1ccccc1-c1ccc2[nH]c(CCNCCc3nc(C(=O)NCc4ncccc4F)co3)nc2c1` [compound 71], the IC50 was 6 nM.

As to `O=C(NCc1ncccc1F)c1coc(CCNCCc2nc3c(-c4cccc(Cl)c4)cccc3[nH]2)n1` [compound 28], the IC50 came to 144 nM.

For the compound `O=C(NCc1ncccc1F)c1coc(CCNCc2nc3c(ccc4ccccc43)[nH]2)n1` [compound 4, 2-(2-(((3H-naphtho[1,2-d]imidazol-2-yl)methyl)amino)ethyl)-N-((3-fluoropyridin-2-yl)methyl)oxazole-4-carboxamide], the IC50 came to 68 nM.

For the compound `O=C(NCc1ccc2c(ccc3ccccc32)n1)c1coc(CCNCCc2nc3c(cnc4ccccc43)[nH]2)n1` [compound 12], the IC50 turned out to be 13900 nM.

As to `O=C(NCc1ncccc1C(F)(F)F)c1coc(CCNCCc2nc3c(ccc4ccccc43)[nH]2)n1` [compound 16], the IC50 was 443 nM.

As for `O=C(NCc1ncccc1F)c1coc(CCNCCc2nc3cc4c(cc3[nH]2)OCCO4)n1` [compound 34], the IC50 is 7 nM.

As for `O=C(NCc1ncccc1F)c1coc(CCNCCc2nc3cc(-c4ccccc4Cl)ccc3[nH]2)n1` [compound 44], the IC50 was determined as 6 nM.

Consider `O=C(NCc1ncccc1F)c1coc(CCNCCc2nc3ccc(-c4nn[nH]n4)cc3[nH]2)n1` [compound 40], for which the IC50 is 1040 nM.

The next test has as its target human Fpn-GFP fusion protein (Homo sapiens, UniProt Q9NP59). Put plainly: cell-based.
Conditions: not given
An excerpt:
Growing HEK-293 #354 cells in doxycycline containing media induced expression of human Fpn-GFP fusion protein on the cell surface.
The compound `CC[C@H](C)[C@@H]1NC(=O)[C@@H](NC(=O)[C@@H](NC(=O)[C@@H]2CCCN2C(=O)[C@H](Cc2ccccc2)NC(=O)[C@H](Cc2c[nH]cn2)NC(=O)[C@@H](NC(=O)[C@@H](N)CC(=O)O)[C@@H](C)O)[C@@H](C)CC)CSSC[C@@H](C(=O)N[C@@H](CCCCN)C(=O)N[C@H](C(=O)O)[C@@H](C)O)NC(=O)[C@@H]2CSSC[C@@H]3NC(=O)[C@@H]4CSSC[C@H](NC(=O)[C@H](Cc5ccccc5)NC1=O)C(=O)N[C@@H](CSSC[C@H](NC(=O)[C@H](CCCCN)NC(=O)[C@H](CO)NC(=O)[C@H](CCCNC(=N)N)NC(=O)[C@H](Cc1c[nH]cn1)NC3=O)C(=O)NCC(=O)N[C@@H](CCSC)C(=O)N2)C(=O)NCC(=O)N4` [hepcidin] gave an EC50 of around 4 nM.

The values are drawn from patent US20240239780A1, “MODIFIED FERROPORTIN INHIBITORS” (Vifor (International) AG, priority 2021, published 2024).
